The text below walks through data of patent US20230087950A1, “METHOD FOR SYNTHESIZING DOPA OLIGOPEPTIDE INTERMEDIATE AND USE, COMPOSITION AND PREPARATION THEREOF” (HAINAN UNIVERSITY, priority 2019, published 2023).

“Also recorded” adds a separate entry of the source. Where a SMILES comes first, the peptide text is derived from it. [ ]: non-standard residue; d: D form. The star is where a group is joined. Dopa = N[C@@H](Cc1ccc(O)c(O)c1)C(=O)O; Stearoyl = CCCCCCCCCCCCCCCCCC(=O)*; Palmitoyl = CCCCCCCCCCCCCCCC(=O)*; Myristoyl = CCCCCCCCCCCCCC(=O)*

The nature of data set [1]: Gelation tests of conjugates of fatty acid and L-DOPA in organic solvent/water. As to conditions: Table 3. The class given is physicochemical. The method, then: (§1) 1) Six samples of 40 mg FDD-16 was added into six 2 ml centrifuge tubes, followed by addition of 1 ml of respective organic solvents. Mother solutions were prepared using MeOH, ethanol, toluene, THF, DMSO, and DMF, respectively.
(§2) 2) Aliquots of 50 μl of the above mother solutions were added, respectively, to nine 2 ml centrifuge tubes, followed by addition of organic solvents (MeOH, ethanol, toluene, THF, DMSO, DMF, respectively). The volume ratios of the organic solvent to distilled water were 1:9, 2:8, 3:7, 4:6, 5:5, 6:4, 7:3, 8:2 and 9:1, respectively. Tests of each solvent ratio were repeated 3 times. Gel formation rates and the corresponding sample concentrations were marked down.
Tests were performed according to the tests done for FDD-16.

The nature of data set [2]: Gelation tests of L-DOPA-containing lipodipeptides in organic solvent/water. Conditions: for Gel formation: organic solvents (MeOH, ethanol, toluene, THF, DMSO, DMF) with water; for Gel formation / Range of gelation concentrations: result in words. The class given is physicochemical. As for the experimental part:
as §1, §2
The experiments were performed like those of FDD-16.

Data set [3] can be described thus: Appearance and stability of gels by turning the tubes upside down. The class given is physicochemical. As to conditions: tubes turned upside down, standing for long time. The text has this:
The appearance and stability of gels formed from FDD-16 was studied by turning the tubes upside down and. […] This shed lights on future druggability study of FDD-16 using MeOH, ethanol, THF, DMSO and DMF as solvents. See FIG. 1 for gel formation experiments.

The conditions of data set [4]: rat liver homogenate; cited from earlier work.
For data set [5] the following is noted: in vivo; cited from earlier work.

With `CCCCCCCCCCCCCCCCCC(=O)N[C@@H](Cc1ccc(O)c(O)c1)C(=O)O` [FD-18], the Gelation concentration is on record as 10~14 g/mL in data set [1] (Ethanol/water) and 10~15 g/mL in data set [1] (MeOH/water).
Turning to `CCCCCCCCCCCCCC(=O)N[C@@H](Cc1ccc(O)c(O)c1)C(=O)N[C@@H](CC(=O)O)C(=O)O` [FDD-14] (Myristoyl-[Dopa]-Asp-OH), the Gelation concentration in data set [2] (DMF/water, Table 2) is 6~20 g/mL; in data set [2] (DMSO/water, Table 2) it was 8~22 g/mL; in data set [2] (Ethanol/water, Table 1) it was 8~20 g/mL; in data set [2] (MeOH/water, Table 1) it was 8~22 g/mL; in data set [2] (THF/water, Table 2), 6~8 g/mL. Further, the Gel formation entry in data set [2] was “could form stable gels; also recorded: formed gels in MeOH, ethanol, THF, DMSO and DMF; also recorded: higher possibilities to form gels; also recorded: can form stable gels”. The “Range of gelation concentrations” value in data set [2] is reported as “wide range of gelation concentrations”.
For `CCCCCCCCCCCCCCCC(=O)N[C@@H](Cc1ccc(O)c(O)c1)C(=O)N[C@@H](CC(=O)O)C(=O)O` [FDD-16] (Palmitoyl-[Dopa]-Asp-OH), the Gelation concentration in data set [2] (DMF/water, Table 2) is 6~22 g/mL; in data set [2] (DMSO/water, Table 2) it was 6~28 g/mL; in data set [2] (Ethanol/water, Table 1), 6~24 g/mL; in data set [2] (MeOH/water, Table 1) it was 6~26 g/mL; in data set [2] (THF/water, Table 2), 8~12 g/mL. Besides, the Gel formation entry in data set [2] is “could form stable gels; also recorded: formed gels in MeOH, ethanol, THF, DMSO and DMF; also recorded: can form stable gels”. Besides, in data set [2], the “Range of gelation concentrations” value is “wide range of gelation concentrations”. The “Appearance and stability of gel” value in data set [3] is “in good condition and remained at the bottom while standing for long time”.
With `CCCCCCCCCCCCCCCCCC(=O)N[C@@H](Cc1ccc(O)c(O)c1)C(=O)N[C@@H](CC(=O)O)C(=O)O` [FDD-18] (Stearoyl-[Dopa]-Asp-OH), the Gelation concentration in data set [2] (DMF/water, Table 2) is 14~26 g/mL; in data set [2] (DMSO/water, Table 2), 16~30 g/mL; in data set [2] (Ethanol/water, Table 1), 12~26 g/mL; in data set [2] (MeOH/water, Table 1), 10~16 g/mL. Further, the Gel formation entry in data set [2] is “could form stable gels; also recorded: formed gels in MeOH, ethanol, DMSO and DMF; also recorded: higher possibilities to form gels; also recorded: can form stable gels”. Besides, the “Range of gelation concentrations” value in data set [2] was “narrower than those of FDD-16 and FDD-14”.
With `N[C@@H](Cc1ccc(O)c(O)c1)C(=O)N[C@@H](CC(=O)O)C(=O)O` [H-DOPA-Asp-OH] (H-[Dopa]-Asp-OH), the half-life – broadly, the time needed for the level to fall by half in the phase considered – in data set [4] is “about 174 min”.
For `CSCC[C@H](NC(=O)[C@@H](N)Cc1ccc(O)c(O)c1)C(=O)O` [H-DOPA-Met-OH] (H-[Dopa]-Met-OH), the half-life in data set [4] is 16 min.
In the case of `N[C@@H](Cc1ccc(O)c(O)c1)C(=O)O` [L-DOPA], in data set [5], the bioavailability is reported as 1-3% and the “time of effective blood drug concentration” value is 50 min.
